Data on seven molecules can be found in patent US12233161B1, “Lipids and lipid nanoparticle formulations” (LONGUIDE BIOPHARMA CORPORATION, priority 2024, dated 2025).

SMILES strings stand for the structures.

The experiment has as its system mice. Description: In vivo delivery of FLuc-mRNA lipid nanoparticles in mice, in vivo imaging (IVIS). Particulars: for IVIS / % of organ targeting: Fluc-mRNA LNP. As to the method: After the preparation was completed, the preparation was injected intramuscularly (mice rectus femoris muscle of the thigh), intravenously (mice tail vein), or intraperitoneal injection or subcutaneous injection (subcutaneous on the back), with approximately 75 μL per mouse, for a total of 3 mice. After a certain time of injection, in vivo imaging (PerkinElmer, IVIS Lumina III) was performed. 10-15 minutes before imaging, 200 μL of 15 mg/mL D-Luciferin working solution was injected intraperitoneally, and the imaging analysis was performed using an in vivo imager.

Where [1] appears, read: route IM, 1 h (live), DSPE-PEG5000:DSPC:Chol:compound 1.40:11.15:38.95:48.50, N/P 30.
The mark [2] stands for this setting: route IM, 1 h (lung), DSPE-PEG5000:DSPC:Chol:compound 1.40:11.15:38.95:48.50, N/P 30.
Where [3] appears, read: route IM, 1 h (muscle), DSPE-PEG5000:DSPC:Chol:compound 1.40:11.15:38.95:48.50, N/P 30.
The mark [4] stands for this setting: route IM, 1 h (spleen), DSPE-PEG5000:DSPC:Chol:compound 1.40:11.15:38.95:48.50, N/P 30.
The mark [5] stands for this setting: route IM, 2 h (live), DSPE-PEG5000:DSPC:Chol:compound 1.40:11.15:38.95:48.50, N/P 30.
The mark [6] stands for this setting: route IM, 2 h (lung), DSPE-PEG5000:DSPC:Chol:compound 1.40:11.15:38.95:48.50, N/P 30.
Where [7] appears, read: route IM, 2 h (muscle), DSPE-PEG5000:DSPC:Chol:compound 1.40:11.15:38.95:48.50, N/P 30.
[8] abbreviates: route IM, 2 h (spleen), DSPE-PEG5000:DSPC:Chol:compound 1.40:11.15:38.95:48.50, N/P 30.
Setting [9] is: route IM, 3 h (live), DSPE-PEG5000:DSPC:Chol:compound 1.40:11.15:38.95:48.50, N/P 30.
The mark [10] stands for this setting: route IM, 3 h (lung), DSPE-PEG5000:DSPC:Chol:compound 1.40:11.15:38.95:48.50, N/P 30.
The mark [11] stands for this setting: route IM, 3 h (muscle), DSPE-PEG5000:DSPC:Chol:compound 1.40:11.15:38.95:48.50, N/P 30.
[12] abbreviates: route IM, 3 h (spleen), DSPE-PEG5000:DSPC:Chol:compound 1.40:11.15:38.95:48.50, N/P 30.
Setting [13] is: route IM, 6 h (live), DSPE-PEG5000:DSPC:Chol:compound 1.40:11.15:38.95:48.50, N/P 30.
Where [14] appears, read: route IM, 6 h (lung), DSPE-PEG5000:DSPC:Chol:compound 1.40:11.15:38.95:48.50, N/P 30.
[15] abbreviates: route IM, 6 h (muscle), DSPE-PEG5000:DSPC:Chol:compound 1.40:11.15:38.95:48.50, N/P 30.
Where [16] appears, read: route IM, 6 h (spleen), DSPE-PEG5000:DSPC:Chol:compound 1.40:11.15:38.95:48.50, N/P 30.
Setting [17] is: route IM, organ not given, formulation, molar ratio and N/P as in the table.
The mark [18] stands for this setting: route IV, organ: body, formulation, molar ratio and N/P as in the table.
The mark [19] stands for this setting: route IV, organ: liver, formulation, molar ratio and N/P as in the table.
The mark [20] stands for this setting: route IV, organ: lung, formulation, molar ratio and N/P as in the table.
[21] abbreviates: route IV, organ: spleen, formulation, molar ratio and N/P as in the table.
Setting [22] is: route IM, organ: liver, formulation, molar ratio and N/P as in the table.
[23] abbreviates: route IM, organ: lung, formulation, molar ratio and N/P as in the table.
The mark [24] stands for this setting: route IM, organ: spleen, formulation, molar ratio and N/P as in the table.

For `CCCCCCC(CCCCCC)C(=O)NCCOC(=O)C(O)CN(CCCN(C)CCCN(CC(O)C(=O)OCCNC(=O)C(CCCCCC)CCCCCC)CC(O)C(=O)OCCNC(=O)C(CCCCCC)CCCCCC)CC(O)C(=O)OCCNC(=O)C(CCCCCC)CCCCCC` (stereo not shown) [Compound L0361], the IVIS runs as follows: (route IH, organ: body, DSPE-PEG5000:DSPC:Chol:compound 1.40:11.15:38.95:48.50, N/P 30) 1.54E+08; (route IH, organ: spleen, DSPE-PEG5000:DSPC:Chol:compound 1.40:11.15:38.95:48.50, N/P 30) 3.59E+04; under setting [1], 6.62E+05; under setting [2], 4.37E+04; under setting [3], 1.07E+08; under setting [4], 3.25E+05. Besides, the IVIS reads like this: under setting [5], 7.54E+06; under setting [6], 1.63E+05; under setting [7], 1.87E+08; under setting [8], 4.77E+06; under setting [9], 4.54E+06; under setting [10], 5.32E+05. In addition, the IVIS is on record as 2.97E+08 under setting [11]; 5.45E+06 under setting [12]; 1.17E+07 under setting [13]; 6.06E+05 under setting [14]; 2.62E+08 under setting [15]; 9.42E+06 under setting [16]. Moreover, the IVIS is 1.14E+08 under setting [17]; 4.99E+07 under setting [18]; 1.24E+07 under setting [19]; 1.36E+07 under setting [20]; 5.05E+07 under setting [21]. In addition, the “% of organ targeting” value reads like this: under setting [1], 63.15%; under setting [2], 4.17%; under setting [4], 31.03%; under setting [5], 58.75%; under setting [6], 1.27%; under setting [8], 37.18%. In addition, the “% of organ targeting” value is, setting by setting: under setting [9], 42.49%; under setting [10], 4.98%; under setting [12], 50.95%; under setting [13], 52.52%; under setting [14], 2.72%; under setting [16], 42.27%.
Turning to `CCCCCCCCCCCCNC(=O)C(O)CN(CCCN(C)CCN(C)CCCN(CC(O)C(=O)NCCCCCCCCCCCC)CC(O)C(=O)NCCCCCCCCCCCC)CC(O)C(=O)NCCCCCCCCCCCC` (stereo not shown) [Compound L0366], under setting [17], the IVIS worked out at 4.56E+05.
Consider `CCCCCCCCN(C)C(=O)C(O)CN(CCN(C)CCN(CC(O)C(=O)N(C)CCCCCCCC)CC(O)C(=O)N(C)CCCCCCCC)CC(O)C(=O)N(C)CCCCCCCC` (stereo not shown) [Compound L0352], for which the IVIS by setting is: under setting [17], 4.47E+05; under setting [18], 1.95E+06; under setting [19], 4.07E+05; under setting [20], 2.38E+05; under setting [21], 2.02E+06. Besides, the “% of organ targeting” value by setting is: under setting [19], 15.27%; under setting [20], 8.93%; under setting [21], 75.80%.
In the case of `CCCCCCCCCCCCNC(=O)C(O)CN(CCCN(C)CCN(C)CCCN(CC(O)C(=O)NCCCCCCCCCCCC)CC(O)C(=O)NCCCCCCCCCCCC)CC(O)C(=O)NCCCCCCCCCCCC` (stereo not shown) [Compound L0365], under setting [17], the IVIS is listed as 1.24E+06.
For the molecule `CCCCCCC(CCCCCC)C(=O)OCCCCCCNC(=O)C(O)CN(CCCN(C)CCCN(CC(O)C(=O)NCCCCCCOC(=O)C(CCCCCC)CCCCCC)CC(O)C(=O)NCCCCCCOC(=O)C(CCCCCC)CCCCCC)CC(O)C(=O)NCCCCCCOC(=O)C(CCCCCC)CCCCCC` (stereo not shown) [Compound L0358], under setting [17], the IVIS stood at 1.45E+07.
On to `CCCCCCC(CCCCCC)C(=O)OCCCCNC(=O)C(O)CN(CCN(C)CCN(CC(O)C(=O)NCCCCOC(=O)C(CCCCCC)CCCCCC)CC(O)C(=O)NCCCCOC(=O)C(CCCCCC)CCCCCC)CC(O)C(=O)NCCCCOC(=O)C(CCCCCC)CCCCCC` (stereo not shown) [Compound L0368], for which the “% of organ targeting” value under setting [1] came to 39.42%; the “% of organ targeting” value under setting [2] is 5.12%; the “% of organ targeting” value under setting [4] is 42.92%; the “% of organ targeting” value under setting [5] is listed as 70.91%; the “% of organ targeting” value under setting [6] was 1.59%; the “% of organ targeting” value under setting [8] is given as 26.79%. Moreover, the “% of organ targeting” value under setting [9] turned out to be 51.88%; the “% of organ targeting” value under setting [10] worked out at 1.77%; the “% of organ targeting” value under setting [12] was 27.68%; the “% of organ targeting” value under setting [13] was 52.87%; the “% of organ targeting” value under setting [14] amounted to 1.75%; the “% of organ targeting” value under setting [16] is recorded as 42.92%. Besides, the “% of organ targeting” value reads like this: under setting [19], 18.05%; under setting [20], 7.99%; under setting [21], 73.95%. The IVIS under setting [1] stood at 3.95E+05; the IVIS under setting [2] came out at 5.13E+04; the IVIS under setting [3] was 8.19E+07; the IVIS under setting [4] amounted to 4.30E+05; the IVIS under setting [5] was 6.97E+06; the IVIS under setting [6] stood at 1.57E+05. In addition, the IVIS is reported as 2.25E+08 under setting [7]; 2.64E+06 under setting [8]; 5.57E+06 under setting [9]; 1.89E+05 under setting [10]; 5.02E+08 under setting [11]; 2.97E+06 under setting [12]. The IVIS runs as follows: under setting [13], 1.53E+07; under setting [14], 5.04E+05; under setting [15], 1.32E+08; under setting [16], 1.24E+07; under setting [17], 9.91E+07; under setting [18], 6.34E+07. Moreover, the IVIS runs as follows: under setting [19], 1.00E+07; under setting [20], 4.43E+06; under setting [21], 4.10E+07.
On to `CCCCCCCCC(CCCCCC)C(=O)OCCCCNC(=O)C(O)CN(CCCN(CC(O)C(=O)NCCCCOC(=O)C(CCCCCC)CCCCCCCC)CC(O)C(=O)NCCCCOC(=O)C(CCCCCC)CCCCCCCC)CCCN(CC(O)C(=O)NCCCCOC(=O)C(CCCCCC)CCCCCCCC)CC(O)C(=O)NCCCCOC(=O)C(CCCCCC)CCCCCCCC` (stereo not shown) [Compound L0378], for which the “% of organ targeting” value reads like this: under setting [22], 37.15%; under setting [23], 12.65%; under setting [24], 50.19%; under setting [19], 45.43%; under setting [20], 0.60%; under setting [21], 53.97%. Further, the IVIS under setting [22] turned out to be 1.82E+05; the IVIS under setting [23] is given as 6.19E+04; the IVIS (route IM, organ: muscle, formulation, molar ratio and N/P as in the table) worked out at 3.09E+07; the IVIS under setting [24] came to 2.45E+05; the IVIS under setting [18] is 2.77E+08; the IVIS under setting [19] is listed as 5.93E+07. For the same molecule, the IVIS runs as follows: under setting [20], 7.82E+05; under setting [21], 7.04E+07. Also, under “Table 3, Fluc-mRNA, various formulations”, the “organ targeting specificity (spleen or lung), in words” value is recorded as “strong targeting specificity to deliver to spleen”.
